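Test compounds were applied to cells in 96-well plates for 48 hours at 5 doses. GI50: concentration for 50% inhibition of growth.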 Active and inactive are the calls of the source. Rule as the data show it: active = GI50 up to about 1.1 µM and inactive = higher.
Columns and labels:
Assay in all cases: inhibition of tumour cell growth, NCI panel, 48 h
[1] = tested on: COLO 205
[2] = tested on: DU-145
[3] = tested on: HCC 2998
[4] = tested on: HT-29
[5] = tested on: KM12
[6] = tested on: LOX IMVI
[7] = tested on: MDA-MB-435
[8] = tested on: NCI-H226
[9] = tested on: OVCAR-4
[10] = tested on: OVCAR-5
[11] = tested on: RXF 393
[12] = tested on: SF-295
[13] = tested on: SF-539
[14] = tested on: SK-MEL-5
[15] = tested on: SNB-75
[16] = tested on: SW-620
[17] = tested on: T47D
[18] = tested on: TK-10
[19] = tested on: U-251
[20] = tested on: UACC-62

| SMILES | GI50 [1] | GI50 [2] | GI50 [3] | GI50 [4] | GI50 [5] | GI50 [6] | GI50 [7] | GI50 [8] | GI50 [9] | GI50 [10] | GI50 [11] | GI50 [12] | GI50 [13] | GI50 [14] | GI50 [15] | GI50 [16] | GI50 [17] | GI50 [18] | GI50 [19] | GI50 [20] |
| --- | --- | --- | --- | --- | --- | --- | --- | --- | --- | --- | --- | --- | --- | --- | --- | --- | --- | --- | --- | --- |
| COc1ccc2nc3ccccc3c(NCCCCN(CCCl)CCCl)c2c1 | 0.368 µM (active) | 0.933 µM (active) | 1.04 µM (active) | 0.043 µM (active) | 0.128 µM (active) | 0.0596 µM (active) | 0.323 µM (active) | 0.368 µM (active) | 0.148 µM (active) | 0.507 µM (active) | 0.0212 µM (active) | 0.0863 µM (active) | 0.136 µM (active) | 0.292 µM (active) | 0.197 µM (active) | 0.0188 µM (active) | 1.26 µM (inactive) | 1.17 µM (inactive) | 0.0752 µM (active) | 0.245 µM (active) |
| O=CNc1ccccc1OCCOc1ccccc1NC=O | > 100 µM (inactive) | > 100 µM (inactive) | > 100 µM (inactive) | > 100 µM (inactive) | > 100 µM (inactive) | > 100 µM (inactive) | > 100 µM (inactive) | > 100 µM (inactive) | > 100 µM (inactive) | > 100 µM (inactive) | > 100 µM (inactive) | > 100 µM (inactive) | > 100 µM (inactive) | > 100 µM (inactive) | > 100 µM (inactive) | > 100 µM (inactive) | > 100 µM (inactive) | > 100 µM (inactive) | > 100 µM (inactive) | > 100 µM (inactive) |
| CCCCCCCCCCCC1=C(O)C(=O)C(CC2=C(O)C(=O)C(CCCCCCCCCCC)=C(O)C2=O)=C(O)C1=O | > 100 µM (inactive) | > 100 µM (inactive) | > 100 µM (inactive) | > 100 µM (inactive) | > 100 µM (inactive) | > 100 µM (inactive) | > 100 µM (inactive) | > 100 µM (inactive) | 40.7 µM (inactive) | > 100 µM (inactive) | 3.19 µM (inactive) | 35.2 µM (inactive) | > 100 µM (inactive) | > 100 µM (inactive) | 14.9 µM (inactive) | > 100 µM (inactive) | > 100 µM (inactive) | 46.6 µM (inactive) | 43.5 µM (inactive) | > 100 µM (inactive) |
| CC(=O)Oc1c(C)cc2c(c1C)C(C)(C)CN2C(=O)C(C)(C)C | 58.1 µM (inactive) | > 100 µM (inactive) | > 100 µM (inactive) | 33.1 µM (inactive) | > 100 µM (inactive) | > 100 µM (inactive) | 77.8 µM (inactive) | 38.5 µM (inactive) | 71.8 µM (inactive) | > 100 µM (inactive) | 84.9 µM (inactive) | > 100 µM (inactive) | > 100 µM (inactive) | 42.3 µM (inactive) | 0.504 µM (active) | > 100 µM (inactive) | 31.6 µM (inactive) | > 100 µM (inactive) | > 100 µM (inactive) | > 100 µM (inactive) |
| c1ccc2c(c1)-c1ccccc1C2NC1=NCCO1 | 18.9 µM (inactive) | 52.6 µM (inactive) | 15.6 µM (inactive) | 21.7 µM (inactive) | 14.2 µM (inactive) | 20.5 µM (inactive) | 23 µM (inactive) | 23.8 µM (inactive) | 25.2 µM (inactive) | 38.8 µM (inactive) | 42.2 µM (inactive) | 31.4 µM (inactive) | 21.7 µM (inactive) | 15.7 µM (inactive) | 15.4 µM (inactive) | 54.2 µM (inactive) | 39.4 µM (inactive) | 28.1 µM (inactive) | 31.3 µM (inactive) | 20.5 µM (inactive) |
| Cc1ccc(S(=O)(=O)Oc2coc(CO)cc2=O)cc1 | 14.3 µM (inactive) | 12.2 µM (inactive) | 13.7 µM (inactive) | 12.4 µM (inactive) | 4.86 µM (inactive) | 3.05 µM (inactive) | 6.85 µM (inactive) | 33.1 µM (inactive) | 15.1 µM (inactive) | 17.8 µM (inactive) | 13.5 µM (inactive) | 16 µM (inactive) | 20.2 µM (inactive) | 13.5 µM (inactive) | 14.2 µM (inactive) | 12.3 µM (inactive) | 13.3 µM (inactive) | 17.5 µM (inactive) | 9.84 µM (inactive) | 11.9 µM (inactive) |
| OC(CC(c1ccccc1)c1ccc(Cl)cc1)c1ccc(Cl)cc1 (stereo not given) | 18.5 µM (inactive) | 44.9 µM (inactive) | 45.5 µM (inactive) | 35.6 µM (inactive) | 30.8 µM (inactive) | 27.9 µM (inactive) | 27.4 µM (inactive) | 31.6 µM (inactive) | 31.3 µM (inactive) | 24.3 µM (inactive) | 24.8 µM (inactive) | 34 µM (inactive) | 21.4 µM (inactive) | 32 µM (inactive) | 29.4 µM (inactive) | 40.7 µM (inactive) | 32.6 µM (inactive) | 38 µM (inactive) | 39.7 µM (inactive) | 30.3 µM (inactive) |
| CS(=O)(=O)Nc1ccc2c(c1)N(S(C)(=O)=O)CC2COS(C)(=O)=O (stereo not given) | > 100 µM (inactive) | 58.9 µM (inactive) | > 100 µM (inactive) | > 100 µM (inactive) | > 100 µM (inactive) | 70 µM (inactive) | > 100 µM (inactive) | > 100 µM (inactive) | 76 µM (inactive) | 40.5 µM (inactive) | 18.7 µM (inactive) | 58.7 µM (inactive) | 41.9 µM (inactive) | 18.9 µM (inactive) | 57.7 µM (inactive) | 32.2 µM (inactive) | > 100 µM (inactive) | 36.8 µM (inactive) | 25.8 µM (inactive) | > 100 µM (inactive) |
| COC(=O)/C=C1\C(CO[Si](C)(C)C(C)(C)C)OC(n2ccc(=O)[nH]c2=O)C1O (stereo not given) | 4.26 µM (inactive) | 7.06 µM (inactive) | 7.71 µM (inactive) | 7.33 µM (inactive) | 7.06 µM (inactive) | 6.41 µM (inactive) | 8.13 µM (inactive) | 5.58 µM (inactive) | 15 µM (inactive) | 16.5 µM (inactive) | 9.84 µM (inactive) | 9.82 µM (inactive) | 15.5 µM (inactive) | 6.28 µM (inactive) | 12.1 µM (inactive) | 9.73 µM (inactive) | 3.63 µM (inactive) | 24.2 µM (inactive) | 7.8 µM (inactive) | 13.7 µM (inactive) |
| Cc1ccc(NC(=S)N/N=C2\C(=O)Nc3ccccc32)cc1 | > 100 µM (inactive) | 4.43 µM (inactive) | > 100 µM (inactive) | > 100 µM (inactive) | > 100 µM (inactive) | 66.5 µM (inactive) | > 100 µM (inactive) | 92.3 µM (inactive) | > 100 µM (inactive) | > 100 µM (inactive) | 84.7 µM (inactive) | 49.9 µM (inactive) | > 100 µM (inactive) | 59.7 µM (inactive) | > 100 µM (inactive) | > 100 µM (inactive) | > 100 µM (inactive) | > 100 µM (inactive) | > 100 µM (inactive) | > 100 µM (inactive) |
| N#Cc1nc(CCC(C(=O)O)N2C(=O)c3ccccc3C2=O)oc1N (stereo not given) | > 100 µM (inactive) | > 100 µM (inactive) | > 100 µM (inactive) | > 100 µM (inactive) | > 100 µM (inactive) | > 10 µM (inactive) | > 100 µM (inactive) | > 100 µM (inactive) | > 100 µM (inactive) | > 100 µM (inactive) | > 100 µM (inactive) | > 100 µM (inactive) | > 100 µM (inactive) | > 100 µM (inactive) | > 100 µM (inactive) | > 100 µM (inactive) | > 100 µM (inactive) | > 100 µM (inactive) | > 100 µM (inactive) | > 100 µM (inactive) |
| COc1ccc(Cn2c3ccc([N+](=O)[O-])cc3c(=O)n2Cc2ccccn2)cc1 | > 100 µM (inactive) | > 100 µM (inactive) | > 100 µM (inactive) | > 100 µM (inactive) | 92.5 µM (inactive) | 78.2 µM (inactive) | 76.4 µM (inactive) | > 100 µM (inactive) | 56.1 µM (inactive) | > 100 µM (inactive) | 86.5 µM (inactive) | > 100 µM (inactive) | > 100 µM (inactive) | 24.9 µM (inactive) | 37.8 µM (inactive) | > 100 µM (inactive) | 18.2 µM (inactive) | > 100 µM (inactive) | > 100 µM (inactive) | 43.9 µM (inactive) |
| CC(C)CNC(=O)c1c(NC(=O)c2ccccc2)sc2[nH]c(=O)n(-c3ccccc3)c(=O)c12 | > 100 µM (inactive) | > 100 µM (inactive) | > 100 µM (inactive) | > 100 µM (inactive) | > 100 µM (inactive) | > 100 µM (inactive) | > 100 µM (inactive) | > 82.6 µM (inactive) | > 64 µM (inactive) | > 100 µM (inactive) | 16.6 µM (inactive) | 19.6 µM (inactive) | 46 µM (inactive) | > 93.1 µM (inactive) | 17.8 µM (inactive) | > 100 µM (inactive) | 89.3 µM (inactive) | 37.9 µM (inactive) | 31.3 µM (inactive) | 64.3 µM (inactive) |
| CC1CCC2(O)C3(C)CC4(O)OC2(C1O)C1(O)C3(O)C(OC(=O)c2ccc[nH]2)C(O)(C(C)C)C41C (stereo not given) | > 100 µM (inactive) | > 100 µM (inactive) | > 100 µM (inactive) | > 100 µM (inactive) | > 100 µM (inactive) | > 100 µM (inactive) | > 100 µM (inactive) | > 100 µM (inactive) | > 100 µM (inactive) | > 100 µM (inactive) | > 100 µM (inactive) | > 100 µM (inactive) | > 100 µM (inactive) | > 100 µM (inactive) | > 100 µM (inactive) | > 100 µM (inactive) | > 100 µM (inactive) | > 100 µM (inactive) | > 100 µM (inactive) | > 100 µM (inactive) |
